According to patent US9284298B2, “Pyrazolyl-pyrimidine derivatives as kinase inhibitors” (NERVIANO MEDICAL SCIENCES S.R.L., priority 2011, dated 2016):
Where a name gives a salt, the structure may show the parent alone.

Key:
[1] = target: PIM1 (Homo sapiens (Human), UniProt P11309); test: Biochemical assay for inhibitors of PIM1 kinase activity (trans-phosphorylation, Dowex); conditions: 200 μM ATP, Aktide substrate
Experimental: The short forms and abbreviations used herein have the following meaning: • Ci Curie • DMSO dimethylsulfoxide • KDa kiloDalton • microCi microCurie • mg milligram • microg microgram • ng nanogram • L liter • mL milliliter • μL microliter • M molar • mM millimolar • μM micromolar • nM nanomolar Biochemical Assay for Inhibitors of PIM1 Kinase Activity
The inhibitory activity of putative kinase inhibitors and the potency of selected compounds were determined using a trans-phosphorylation assay.
(§1) Specific peptide or protein substrates are trans-phosphorylated by their specific ser-thr or tyr kinase in the presence of ATP traced with ^33P-γ-ATP, and in the presence of their own optimal buffer and cofactors.
(§2) At the end of the phosphorylation reaction, more than 98% unlabeled ATP and radioactive ATP is captured by an excess of the ion exchange dowex resin; the resin then settles down to the bottom of the reaction plate by gravity.
(§3) Supernatant is subsequently withdrawn and transferred into a counting plate, then evaluated by β-counting.
The buffer for PIM1 assay was composed of HEPES 50 mM, at pH 7.5, with 10 mM MgCl2, 1 mM DTT, 3 μM NaVO3, and 0.2 mg/mL BSA. […]
Data are analyzed by an internally customized version of the “Assay Explorer” SW package, which provides sigmoidal fitting of the ten-dilution curves for IC50 determination in secondary assay/hit confirmation routines.

[2] = target: PIM2 (Homo sapiens (Human), UniProt Q9P1W9); test: PIM2 kinase inhibition assay: Dowex technique; type: biochemical; conditions: 4 μM ATP, Aktide substrate
Experimental: Method for PIM2 Kinase Inhibition Assay: Dowex Technique
The buffer for PIM2 assay was composed of HEPES 50 mM, at pH 7.5, with 1 mM MgCl2, 1 mM DTT, 3 μM Na3VO4, and 0.2 mg/mL BSA.
Full-length human PIM2 was expressed and purified as described in Fedorov O, et al., PNAS 2007 104, 51, 20523-28.
Enzyme concentration=1.5 nM
Aktide substrate (Chemical Abstract Service Registry Number 324029-01-8)=5 μM
See above: same procedure as described for PIM1.

[3] = target: MPS1 (Homo sapiens (Human), UniProt P33981); test: Biochemical assay for inhibitors of MPS1 kinase activity (trans-phosphorylation, Dowex); conditions: 15 μM ATP, P38-tide substrate
From the text: Cloning, Expression and Purification of Recombinant MPS1 Full Length Protein.
MPS1 full length (corresponding to residues 2-857 of the full length sequence, see Swiss-Prot accession number P33981) was PCR amplified from the full-length human MPS1 gene present in house as clone pGEX4t_MPS1.
Baculoviruses were generated by cotransfecting Sf9 insect cells with the expression vector and the viral DNA using the BaculoGold® transfection kit (Pharmingen). Viral supernatant was recovered after 5 days and subjected to 3 rounds of amplification to increase viral titer. Recombinant protein was produced by infecting High5 insect cells. After 72 h of infection at 21° C., cells were recovered, pelletted and freezed at −80° C. For purification of recombinant protein, pellet was thawed, resuspended in lysis buffer (PBS, NaCl 150 mM, Glycerol 10%, CHAPS 0.1%, DTT 20 mM, protease and phosphatase inhibitors) and lysed by Gaulin. Lysate was cleared by centrifugation and loaded on a GST affinity column. After extensive wash, recombinant protein was cleaved by a specific protease and eluted by incubation.
To get a fully activated enzyme, the protein was then subjected to auto-phosphorylation in presence of ATP 1 mM at 25° C. for 2 h in kinase buffer (Hepes pH 7.5 50 mM, MgCl2 2.5 mM, MnCl2 1 mM, DTT 1 mM, phosphatase inhibitors); ATP was then removed with a desalting column.
Biochemical Assay for Inhibitors of MPS1 Kinase Activity The inhibitory activity of putative kinase inhibitors and the potency of selected compounds were determined using a trans-phosphorylation assay.
as §1, §2, §3
The buffer for MPS1 assay was composed of HEPES 50 mM, at pH 7.5, with 2.5 mM MgCl2, 1 mM MnCl2, 1 mM DTT, 3 μM Na3VO4, 2 mM β-glycerophosphate and 0.2 mg/mL BSA.
The assay was run with a final concentration MPS1 of 5 nM, in the presence of 15 μM ATP and 1.5 nM ^33P-γ-ATP; the substrate was P38-tide, used at 200 μM.
Test compounds are received as a 1 mM solution in 100% DMSO, distributed into 96 or 384 well plates: • a) for percent inhibition studies (HTS), individual dilution plates at 1 mM are diluted at a 3× concentration (30 μM) in ddH2O (3% DMSO=final concentration) using a Beckman NX automated pipetting platform. […]

MPS1, sequence (P33981 2-857): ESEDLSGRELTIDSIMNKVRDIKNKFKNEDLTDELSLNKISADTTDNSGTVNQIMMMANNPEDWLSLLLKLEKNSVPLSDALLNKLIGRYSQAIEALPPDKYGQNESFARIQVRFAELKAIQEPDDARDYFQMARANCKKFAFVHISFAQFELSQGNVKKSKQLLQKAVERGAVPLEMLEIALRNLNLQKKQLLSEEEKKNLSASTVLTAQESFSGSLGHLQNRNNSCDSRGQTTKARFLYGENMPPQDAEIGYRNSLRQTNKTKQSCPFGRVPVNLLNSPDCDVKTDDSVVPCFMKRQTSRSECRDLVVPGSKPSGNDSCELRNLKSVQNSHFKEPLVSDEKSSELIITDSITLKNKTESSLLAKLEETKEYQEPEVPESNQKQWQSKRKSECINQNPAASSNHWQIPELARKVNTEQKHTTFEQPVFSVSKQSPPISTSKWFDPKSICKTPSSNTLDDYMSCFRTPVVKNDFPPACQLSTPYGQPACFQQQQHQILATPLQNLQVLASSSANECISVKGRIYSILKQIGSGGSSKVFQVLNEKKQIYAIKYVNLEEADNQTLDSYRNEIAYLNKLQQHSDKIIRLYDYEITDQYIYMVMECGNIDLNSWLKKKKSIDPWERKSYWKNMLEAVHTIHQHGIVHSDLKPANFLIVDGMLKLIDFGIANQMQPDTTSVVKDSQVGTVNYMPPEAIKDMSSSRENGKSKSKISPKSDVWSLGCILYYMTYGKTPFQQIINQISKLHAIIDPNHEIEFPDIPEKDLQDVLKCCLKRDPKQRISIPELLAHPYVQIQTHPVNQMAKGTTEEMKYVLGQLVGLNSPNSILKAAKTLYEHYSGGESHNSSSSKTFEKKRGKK
PIM2, sequence (Q9P1W9 whole entry): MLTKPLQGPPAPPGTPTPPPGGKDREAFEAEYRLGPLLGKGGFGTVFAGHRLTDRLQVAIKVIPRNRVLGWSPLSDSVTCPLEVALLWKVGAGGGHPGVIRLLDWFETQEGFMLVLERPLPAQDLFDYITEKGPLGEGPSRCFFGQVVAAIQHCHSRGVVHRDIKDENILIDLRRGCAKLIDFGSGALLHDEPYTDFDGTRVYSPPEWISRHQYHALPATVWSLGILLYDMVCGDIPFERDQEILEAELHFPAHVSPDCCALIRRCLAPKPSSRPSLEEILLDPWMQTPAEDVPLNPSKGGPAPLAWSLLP
PIM1, sequence (P11309 whole entry): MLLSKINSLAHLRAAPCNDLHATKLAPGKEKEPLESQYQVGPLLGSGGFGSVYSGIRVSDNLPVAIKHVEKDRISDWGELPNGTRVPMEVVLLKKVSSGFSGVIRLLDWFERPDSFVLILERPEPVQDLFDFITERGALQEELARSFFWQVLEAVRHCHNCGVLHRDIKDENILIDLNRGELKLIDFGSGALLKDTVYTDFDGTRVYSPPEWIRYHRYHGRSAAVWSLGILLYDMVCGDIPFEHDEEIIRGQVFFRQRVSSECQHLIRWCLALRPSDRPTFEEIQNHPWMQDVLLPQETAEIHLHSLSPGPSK

| SMILES | IC50 [1] | IC50 [2] | IC50 [3] |
| --- | --- | --- | --- |
| CSc1nccc(-c2cc(C(N)=O)nn2C2CCNCC2)n1 [Compound 21, 5-[2-(methylsulfanyl)pyrimidin-4-yl]-1-(piperidin-4-yl)-1H-pyrazole-3-carboxamide hydrochloride] | < 10 µM | < 10 µM |  |
| CCc1cccc(CC)c1NC(=O)c1cc(-c2ccnc(Nc3ccc(N4CCN(C)CC4)cc3OC)n2)n(C)n1 [Compound 3, N-(2,6-diethylphenyl)-5-(2-{[2-methoxy-4-(4-methylpiperazin-1-yl)phenyl]amino}pyrimidin-4-yl)-1-methyl-1H-pyrazole-3-carboxamide] |  |  | < 200 nM |
| CCc1cccc(CC)c1NC(=O)c1cc(-c2ccnc(Nc3ccc(N4CCN(C)CC4)cc3OC)n2)[nH]n1 [Compound 11, N-(2,6-diethylphenyl)-5-(2-{[2-methoxy-4-(4-methylpiperazin-1-yl)phenyl]amino}pyrimidin-4-yl)-1H-pyrazole-3-carboxamide] |  |  | < 200 nM |
| CCc1cccc(CC)c1NC(=O)c1cc(-c2ccnc(Nc3ccc(N4CCN(CCO)CC4)cc3OC)n2)[nH]n1 [Compound 13, N-(2,6-diethylphenyl)-5-[2-({4-[4-(2-hydroxyethyl)piperazin-1-yl]-2-methoxyphenyl}amino)pyrimidin-4-yl]-1H-pyrazole-3-carboxamide] |  |  | < 200 nM |
| CCc1cccc(CC)c1NC(=O)c1cc(-c2ccnc(Nc3ccc(N4CCN(CCO)CC4)cc3OC)n2)n(C)n1 [Compound 8, N-(2,6-diethylphenyl)-5-[2-({4-[4-(2-hydroxyethyl)piperazin-1-yl]-2-methoxyphenyl}amino)pyrimidin-4-yl]-1-methyl-1H-pyrazole-3-carboxamide] |  |  | < 200 nM |
